Data reported in PMC8003416, “Modulation of Human Phenylalanine Hydroxylase by 3-Hydroxyquinolin-2(1H)-One Derivatives” (Biomolecules, 2021).
Where two headings read alike, the source gives them in different places.

What was measured:
[1] = biological target: T1, human phenylalanine hydroxylase (hPAH) (Homo sapiens, UniProt P00439); assay: Differential scanning fluorimetry (thermal denaturation); type: binding; conditions: for ΔTm1 (regulatory domain) / ΔTm2 (catalytic domain): 100 μM compound vs 1% DMSO control, * S.D. < 0.01
T1 construct: Recombinant full-length wild-type (WT) hPAH was expressed in E. coli Top10 cells in fusion with a hexa-histidyl peptide; made in house; host or cells: E. coli Top10
T1 sequence (P00439 1-452): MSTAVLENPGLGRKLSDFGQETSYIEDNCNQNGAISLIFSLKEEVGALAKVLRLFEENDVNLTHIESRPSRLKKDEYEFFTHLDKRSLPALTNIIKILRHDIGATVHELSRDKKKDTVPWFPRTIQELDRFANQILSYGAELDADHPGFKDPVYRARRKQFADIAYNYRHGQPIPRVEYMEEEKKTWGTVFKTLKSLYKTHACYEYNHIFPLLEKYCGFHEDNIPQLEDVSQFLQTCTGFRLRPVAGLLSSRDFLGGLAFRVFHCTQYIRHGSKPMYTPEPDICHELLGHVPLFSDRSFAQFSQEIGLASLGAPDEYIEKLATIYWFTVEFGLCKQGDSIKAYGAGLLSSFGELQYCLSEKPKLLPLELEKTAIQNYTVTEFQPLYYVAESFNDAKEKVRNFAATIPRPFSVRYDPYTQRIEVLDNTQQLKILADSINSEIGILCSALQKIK
Procedure: Thermal denaturation profiles of recombinant hPAH were obtained by differential scanning fluorimetry (DSF) in a C1000 Touch thermal cycler equipped with a CFX96 optical reaction module (Bio-Rad; Hercules, CA, USA) as previously described. Briefly, DSF assays (n = 3) were performed using 100 μg/mL hPAH tetramers (final concentration of 0.45 μM of tetramer), SYPRO Orange (5000-fold commercially available stock solution; Invitrogen; Carlsbad, CA, USA) at a 2.5-x final concentration and ramping the temperature from 20 to 90 °C, at 1 °C/min. Fluorescence data were acquired using the FRET channel. Data were processed using CFX Manager Software V3.0 (Bio-Rad) and the GraphPad Prism. Temperature scan curves were fitted to a biphasic dose–response function and the Tm values were obtained from the midpoint of the first (Tm1) and second transitions (Tm2) corresponding, respectively, to the thermal denaturation of the regulatory and catalytic domains. The Tm values in the presence of 3HQ were compared to those obtained in the presence of 1% DMSO (vehicle control) and a change in the Tm was considered significant when the |ΔTm| ≥ 2 °C [22].

[2] = biological target: T1, human phenylalanine hydroxylase (hPAH); assay: Limited proteolysis of hPAH by trypsin; conditions: 100 μM in 1% DMSO, 25 °C, trypsin:hPAH 1:200; control 0.41 ± 0.03
Procedure: Limited proteolysis of purified hPAH was performed as previously described, at 25 °C in SEC buffer and with a trypsin (Sigma-Aldrich) to hPAH ratio of 1:200 (by mass; final hPAH protein concentration 300 μg/mL), in the presence of 100 µM of 3HQ derivatives or 1% DMSO. Control assays were also performed in the presence of 100 μM and 1 mM L-Phe. At different time points (0 to 60 min), aliquots of the reaction were mixed with soybean trypsin inhibitor (Sigma-Aldrich) at a protease to inhibitor ratio of 1:1.5 (by mass) and analyzed by SDS-PAGE (10% polyacrylamide). The band corresponding to full-length hPAH was quantified by densitometric analysis using the Quantity One 1D software v4.6.3 (Bio-Rad). Data were fitted to a single exponential decay equation to obtain the decay constant of proteolysis (kP). Assays were performed in duplicate and data represent the mean ± SEM.

trypsin = assay: Trypsin activity control with Z-Gly-Gly-Arg-AMC; type: biochemical; conditions: 100 μM compound; for relative (residual) trypsin activity: 1% DMSO control = 100%; for Trypsin Abs/min: control 512 ± 11
Procedure: To rule out compounds that inhibit/inactivate trypsin, changes in the cleavage rate of N-(Benzyloxy)carbonyl-glycylglycylarginyl-7-amido-4-methylcoumarin (Z–Gly–Gly–Arg–AMC; Bachem, Bubendorf, Switzerland), a synthetic substrate of trypsin, were monitored by fluorimetric measurements in a microplate reader (FLUOstar Omega; BMGLabtech, Ortenberg, Germany). The assays (n = 3) were performed in a 96-well plate, in SEC buffer and in a final volume of 200 μL containing 1.5 μg/mL of trypsin, 50 μM of Z–Gly–Gly–Arg–AMC and 100 μM of 3HQs derivatives. Fluorescence was measured in real-time, with λexc 360 nm and λem 460 nm, during 30 min at 25 °C. Controls were performed using substrate alone with 1% DMSO (negative control) and trypsin with no compounds and 1% DMSO (positive control).

[3] = biological target: T1, human phenylalanine hydroxylase (hPAH); assay: Time-dependent loss of hPAH activity at 42 °C; type: biochemical; conditions: 100 μM compound; for protective effect on hPAH activity over time: up to 120 min at 42 °C; for remaining activity at 100 µM: read-out: hPAH residual activity, % of control sample
Procedure: The hPAH time-dependent loss of activity at a fixed temperature was assessed in a period of 120 min, in the absence and presence of compounds. In these assays, the enzymatic reaction was performed essentially as described above for the Phe/3HQ-A condition. Compounds (100 μM) were pre-incubated with the enzyme at 42 °C. After a 30, 45, 60, 90 and 120 min period, an aliquot of the protein (5 μg) was incubated, at 37 °C, with 100 μM L-Phe for 4 min, and the reaction proceeded as above at 37 °C [19].

[4] = biological target: T2, hPAH non-heme ferric center (Homo sapiens, UniProt P00439); assay: Electron paramagnetic resonance spectroscopy; conditions: ≈100 μM hPAH monomer, equimolar 3HQ, 4K
T2 construct: Recombinant full-length wild-type (WT) hPAH was expressed in E. coli Top10 cells in fusion with a hexa-histidyl peptide; made in house; host or cells: E. coli Top10
T2 sequence (P00439 1-452): T1 sequence (P00439 1-452)
Procedure: EPR spectra of hPAH (at ≈100 μM monomer) in the absence or presence of equimolar amounts of 3HQs were recorded at 4K in a Bruker EMX spectrometer (Billerica, MA, USA) equipped with an ESR-900 continuous flow helium cryostat from Oxford Instruments (Abingdon, Johnson, UK). Spectra were recorded for control samples containing 100 μM FeCl3 solutions incubated with equimolar amounts of 3HQs to evaluate direct binding of the compounds to free Fe^3+ in solution. Microwave frequency: 9.39 GHz; microwave power, 2 mW; modulation amplitude, 1 mT.

[5] = 100 μM compound in 1% DMSO, control 43.4 ± 0.6
[6] = 100 μM compound in 1% DMSO, control 53.5 ± 0.4

Row | ΔTm2 (catalytic domain) [1] | proteolytic rate (kP) [2] [min⁻¹] | protective effect on hPAH activity over time [3] | Tm1 (regulatory domain) ([1]; 1 mM L-Phe, 1% DMSO) [°C] | Tm2 (catalytic domain) ([1]; 1 mM L-Phe, 1% DMSO) [°C] | Structure (SMILES) | Tm1 (regulatory domain) [1, 5] [°C] | Tm2 (catalytic domain) [1, 6] [°C] | ΔTm1 (regulatory domain) [1] | relative (residual) trypsin activity (trypsin) [%] | Trypsin Abs/min (trypsin) [Abs/min] | change of hPAH EPR spectrum [4] | remaining activity at 100 µM ([3]; 60 min at 42 °C) [%] | remaining activity at 100 µM ([3]; 90 min at 42 °C) [%] | remaining activity at 100 µM ([3]; 120 min at 42 °C) [%]
1 | – | 0.15 ± 0.01 | – | 51.0 ± 0.2 | 58.4 ± 0.04 | N[C@@H](Cc1ccccc1)C(=O)O [L-Phe, L-phenylalanine, reference compound] | – | – | – | – | – | – | – | – | –
2 | -1.3 ± 0.01 °C | 0.30 ± 0.01 | protective effect was not observed | – | – | O=C(NCCc1ccccc1)c1c(O)c(=O)[nH]c2ccc(OC(F)(F)F)cc12 [Compound 8] | 43.3 ± 0.1 | 52.2 ± 0.3 | – | 62 | 319 ± 7 | less rhombic EPR signals appeared | – | – | –

Continued, compound first:

Row | Structure (SMILES) | ΔTm2 (catalytic domain) [1] | proteolytic rate (kP) [2] [min⁻¹] | protective effect on hPAH activity over time [3] | Tm1 (regulatory domain) ([1]; 1 mM L-Phe, 1% DMSO) [°C] | Tm2 (catalytic domain) ([1]; 1 mM L-Phe, 1% DMSO) [°C] | Tm1 (regulatory domain) [1, 5] [°C] | Tm2 (catalytic domain) [1, 6] [°C] | ΔTm1 (regulatory domain) [1] | relative (residual) trypsin activity (trypsin) [%] | Trypsin Abs/min (trypsin) [Abs/min] | change of hPAH EPR spectrum [4] | remaining activity at 100 µM ([3]; 60 min at 42 °C) [%] | remaining activity at 100 µM ([3]; 90 min at 42 °C) [%] | remaining activity at 100 µM ([3]; 120 min at 42 °C) [%]
3 | CCOC(=O)[C@H](Cc1ccccc1)NC(=O)c1c(O)c(=O)[nH]c2ccc(OC(F)(F)F)cc12 [Compound 3] | +0.1 ± 0.01 °C | 0.29 ± 0.04 | protective effect was not observed | – | – | 51.7 ± 0.4 | 53.6 ± 0.2 | +8.3 ± 0.06 °C | 79 | 403 ± 12 | significant increase in the intensity of this main band at g = 4.25 | – | – | –
4 | COC(=O)CC[C@H](NC(=O)c1c(O)c(=O)[nH]c2ccc(OC(F)(F)F)cc12)C(=O)OC [Compound 9] | -0.5 ± 0.01 °C | 0.38 ± 0.04 | – | – | – | 43.5 ± 0.1 | 53.0 ± 0.1 | +0.2 ± 0.01 °C | 71 | 362 ± 9 | less rhombic EPR signals appeared | 136 ± 7 | 121 ± 32 | 176 ± 32
5 | COC(=O)CNC(=O)c1c(O)c(=O)[nH]c2ccc(OC(F)(F)F)cc12 [Compound 11] | – | 0.41 ± 0.01 | – | – | – | 47.4 ± 0.1 | 53.6 ± 0.2 | +4.0 ± 0.01 °C | 92 | 470 ± 11 | less rhombic EPR signals appeared | – | 117 ± 33 | 168 ± 64
